Laboratory results as given in patent US20240140980A1, “HETEROCYCLIC INHIBITORS OF CD73 FOR TREATMENT OF DISEASE” (Teon Therapeutics, Inc., priority 2022, published 2024).
pEC50, pIC50: −log10 of the molar value.

Key:
CD73 [1] = target: T1, CD73 (Homo sapiens (Human), UniProt P21589); test: Cellular CD73 Assay (primary human CD3+ T-cells with AMP); assay type: cell-based; conditions: primary human peripheral blood CD3+ T-cells, 40 μM AMP, 3 days; readout (cell division or IL-2/IFN-γ) not specified for the column
Protocol: Primary human peripheral blood CD3+ T-cells obtained from AllCells were thawed and cultured for 24 h in a complete growth medium (Stemline T-cell expansion medium, Sigma #S1694) supplemented with 1 mM L-glutamine, 50 IU/mL of IL-2 and 25 μL/mL of Dynabeads™ Human T-Activator CD3/CD28 (Thermo-Fisher #11161D) at a density of 10^6 cells/mL. Then, cells were labeled with 1.25 μM Cell Trace Violet (Thermo-Fisher #C34557) according to the manufacturer's instructions. Labeled cells were resuspended in a warm complete growth medium and plated onto U-bottom 96-well plates at 25,000 cells/90 μL/well. Next, 500× serial compound dilutions were prepared in DMSO in a 8-point 3-fold titration and then diluted 1:25 into a complete growth medium, generating 20× compound dilutions. Then, 5 μL of 20× compound dilutions was added to the cells and incubated for 60 min at 37° C. After this, 5 μL of 20×AMP was added to a final concentration of 40 μM. Treated cells were cultured for 3 days at 37° C., 5% CO2. Thereafter, cells were gently pelleted by centrifugation, and supernatants were collected and frozen at −80° C. for subsequent cytokine analysis. Cell pellets were resuspended in 100 μL of PBS/2% FBS and gently pipetted up and down to produce a single cell suspension. Then, 3 μL of 7-AAD (BD Biosciences #559925) was added to each well and plates were incubated on ice for 5 min. Cells were then washed and resuspended in 150 μL of PBS/2% FBS. Divided and non-divided live cells were quantified by Attune NxT flow cytometer. Cell Trace Violet-labeled cells cultured without a T-cell activator were used as the nondividing control.
For IL-2 and IFN-γ cytokine analysis, supernatants were thawed on ice, diluted 1:10 in the buffer. The concentration of cytokines was determined using Meso Scale Discovery according to the manufacturer's instructions (Meso Scale Discovery). The EC50 values were determined using a four-parameter nonlinear regression curve fit (GraphPad Prism Version 9.2, GraphPad Software Inc., San Diego, CA).

CD73 [2] = target: T1, CD73; test: Biochemical CD73 Assay (Malachite Green free phosphate detection); conditions: recombinant human CD73 2 nM, AMP 40 μM, 45 min at 37° C.
Protocol: Activity of recombinant CD73 was measured by quantification of free phosphate using the Malachite Green detection system (R&D Systems #DY996). Test compounds were solubilized in DMSO and dispensed into 384-well polystyrene plates in a 8-point 3× titration in duplicates. Then, 10 μL of 4 nM human CD73 enzyme (Novoprotein #C446) in phosphate-free assay buffer (10 mM HEPES, pH 7.4, 125 mM NaCl, 1 mM KCl, 10 mM glucose, 2 mM MgCl2) was added to the plates. The compound and enzyme were incubated for 15 min at RT. Then, 10 μL of 80 μM AMP (Sigma Aldrich #A1752) in the assay buffer was added and the reaction mixture was incubated for 45 min at 37° C. The final concentrations of CD73 and AMP in the reaction were 2 nM and 40 μM, respectively. The reaction was stopped by adding 5 μL of Malachite Green reagent A and incubating for 10 min at RT, followed by addition of 5 μL of Malachite Green reagent B and incubation for 20 min at RT. Absorbance was then read at 620 nm with the Flexstation spectrophotometer (Molecular Devices). The IC50 values were determined using a four-parameter nonlinear regression curve fit.

T1 sequence (P21589 27-574): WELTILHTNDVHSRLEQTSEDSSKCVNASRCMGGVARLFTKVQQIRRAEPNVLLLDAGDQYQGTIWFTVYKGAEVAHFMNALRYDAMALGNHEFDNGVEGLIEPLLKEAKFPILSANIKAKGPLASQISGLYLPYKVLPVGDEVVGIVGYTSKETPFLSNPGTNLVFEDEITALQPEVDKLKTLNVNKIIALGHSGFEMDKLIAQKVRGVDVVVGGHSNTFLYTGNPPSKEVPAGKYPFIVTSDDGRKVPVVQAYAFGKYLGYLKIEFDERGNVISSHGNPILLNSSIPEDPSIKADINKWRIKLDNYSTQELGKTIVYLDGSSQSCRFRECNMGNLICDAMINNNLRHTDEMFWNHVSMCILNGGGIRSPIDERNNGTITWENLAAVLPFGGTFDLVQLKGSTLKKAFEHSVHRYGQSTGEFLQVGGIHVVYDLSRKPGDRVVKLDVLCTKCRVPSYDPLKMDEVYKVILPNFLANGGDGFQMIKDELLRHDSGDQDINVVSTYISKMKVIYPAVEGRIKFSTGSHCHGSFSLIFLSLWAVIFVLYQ

SMILES | pEC50 (CD73 [1]) | pIC50 (CD73 [2])
COC[C@@](OC[C@H]1O[C@@H](n2ncc3c(NC4CCCC4)nc(Cl)nc32)[C@H](O)[C@@H]1O)(C(=O)N=[S@](C)(=O)NC(=O)C1CC1)P(=O)(O)O [Example 12, ((S)-2-(((2R,3S,4R,5R)-5-(6-Chloro-4-(cyclopentylamino)-1H-pyrazolo[3,4-d]pyrimidin-1-yl)-3,4-dihydroxytetrahydrofuran-2-yl)methoxy)-1-(((S)-cyclopropanecarboxamido(methyl)(oxo)-λ^6-sulfaneylidene)amino)-3-methoxy-1-oxopropan-2-yl)phosphonic Acid] | 9.04 | 9.35
COC[C@@](OC[C@H]1O[C@@H](n2ncc3c(NC4CCCC4)nc(Cl)nc32)[C@H](O)[C@@H]1O)(C(=O)N=S(C)(=O)NC(=O)C(C)C)P(=O)(O)O (single isomer, unassigned) [Example 16] | 8.87 | 9.11
COC[C@@](OC[C@H]1O[C@@H](n2ncc3c(NC4CCCC4)nc(Cl)nc32)[C@H](O)[C@@H]1O)(C(=O)N=S(C)(=O)NC(=O)C(C)C)P(=O)(O)O (single isomer, unassigned) [Example 15] | 8.11 | 8.20
COC[C@@](OC[C@H]1O[C@@H](n2ncc3c(NC4CCCC4)nc(Cl)nc32)[C@H](O)[C@@H]1O)(C(=O)N=[S@](C)(=O)NC(C)=O)P(=O)(O)O [Example 17, ((S)-1-(((S)-Acetamido(methyl)(oxo)-λ^6-sulfaneylidene)amino)-2-(((2R,3S,4R,5R)-5-(6-chloro-4-(cyclopentylamino)-1H-pyrazolo[3,4-d]pyrimidin-1-yl)-3,4-dihydroxytetrahydrofuran-2-yl)methoxy)-3-methoxy-1-oxopropan-2-yl)phosphonic Acid] | 9.01 | 9.24
CCC(=O)NS(C)(=O)=NC(=O)[C@@](COC)(OC[C@H]1O[C@@H](n2ncc3c(NC4CCCC4)nc(Cl)nc32)[C@H](O)[C@@H]1O)P(=O)(O)O (stereo partly drawn) [Example 14, ((2S)-2-(((2R,3S,4R,5R)-5-(6-Chloro-4-(cyclopentylamino)-1H-pyrazolo[3,4-d]pyrimidin-1-yl)-3,4-dihydroxytetrahydrofuran-2-yl)methoxy)-3-methoxy-1-((methyl(oxo)(propionamido)-λ^6-sulfaneylidene)amino)-1-oxopropan-2-yl)phosphonic Acid] | 8.94 | 9.13
COC[C@@](OC[C@H]1O[C@@H](n2ncc3c(NC4CCCC4)nc(Cl)nc32)[C@H](O)[C@@H]1O)(C(=O)N=[S@](C)(N)=O)P(=O)(O)O [Example 1, ((2S)-1-((Amino(methyl)(oxo)-λ^6-sulfaneylidene)amino)-2-(((2R,3S,4R,5R)-5-(6-chloro-4-(cyclopentylamino)-1H-pyrazolo[3,4-d]pyrimidin-1-yl)-3,4-dihydroxytetrahydrofuran-2-yl)methoxy)-3-methoxy-1-oxopropan-2-yl)phosphonic Acid] | 9.29 | 9.03
COC[C@@](OC[C@H]1O[C@@H](n2ncc3c(NC4CCCC4)nc(Cl)nc32)[C@H](O)[C@@H]1O)(C(=O)N=[S@](C)(=O)NC(=O)OC)P(=O)(O)O [Example 18, ((S)-2-(((2R,3S,4R,5R)-5-(6-Chloro-4-(cyclopentylamino)-1H-pyrazolo[3,4-d]pyrimidin-1-yl)-3,4-dihydroxytetrahydrofuran-2-yl)methoxy)-3-methoxy-1-(((S)-((methoxycarbonyl)amino)(methyl)(oxo)-λ^6-sulfaneylidene)amino)-1-oxopropan-2-yl)phosphonic Acid] | 9.00 | 9.30
CNC(=O)N[S@](C)(=O)=NC(=O)[C@@](COC)(OC[C@H]1O[C@@H](n2ncc3c(NC4CCCC4)nc(Cl)nc32)[C@H](O)[C@@H]1O)P(=O)(O)O [Example 9, ((S)-2-(((2R,3S,4R,5R)-5-(6-Chloro-4-(cyclopentylamino)-1H-pyrazolo[3,4-d]pyrimidin-1-yl)-3,4-dihydroxytetrahydrofuran-2-yl)methoxy)-3-methoxy-1-(((R)-methyl(3-methylureido)(oxo)-λ^6-sulfaneylidene)amino)-1-oxopropan-2-yl)phosphonic Acid] | 8.80 | 9.05
CCC(=O)NS(C)(=O)=NC(=O)[C@@](COC)(OC[C@H]1O[C@@H](n2ncc3c(NC4CCCC4)nc(Cl)nc32)[C@H](O)[C@@H]1O)P(=O)(O)O (stereo partly drawn) [Example 13, ((2S)-2-(((2R,3S,4R,5R)-5-(6-Chloro-4-(cyclopentylamino)-1H-pyrazolo[3,4-d]pyrimidin-1-yl)-3,4-dihydroxytetrahydrofuran-2-yl)methoxy)-3-methoxy-1-((methyl(oxo)(propionamido)-λ^6-sulfaneylidene)amino)-1-oxopropan-2-yl)phosphonic Acid] | 9.17 | 9.15
COC[C@@](OC[C@H]1O[C@@H](n2ncc3c(NC4CCCC4)nc(Cl)nc32)[C@H](O)[C@@H]1O)(C(=O)N=[S@@](C)(=O)NC(=O)C1CC1)P(=O)(O)O [Example 11, ((S)-2-(((2R,3S,4R,5R)-5-(6-Chloro-4-(cyclopentylamino)-1H-pyrazolo[3,4-d]pyrimidin-1-yl)-3,4-dihydroxytetrahydrofuran-2-yl)methoxy)-1-(((R)-cyclopropanecarboxamido(methyl)(oxo)-λ^6-sulfaneylidene)amino)-3-methoxy-1-oxopropan-2-yl)phosphonic Acid] | 9.05 | 9.11
COC[C@@](OC[C@H]1O[C@@H](n2ncc3c(NC4CCCC4)cc(Cl)nc32)[C@H](O)[C@@H]1O)(C(=O)N=[S@](C)(=O)NC(C)=O)P(=O)(O)O [Example 32, ((S)-1-(((S)-acetamido(methyl)(oxo)-λ^6-sulfaneylidene)amino)-2-(((2R,3S,4R,5R)-5-(6-chloro-4-(cyclopentylamino)-1H-pyrazolo[3,4-b]pyridin-1-yl)-3,4-dihydroxytetrahydrofuran-2-yl)methoxy)-3-methoxy-1-oxopropan-2-yl)phosphonic Acid] | – | 9.00
COC[C@@](OC[C@H]1O[C@@H](n2ncc3c(NC4CCCC4)cc(Cl)nc32)[C@H](O)[C@@H]1O)(C(=O)N=[S@](C)(=O)NC(=O)C1CC1)P(=O)(O)O [Example 28, ((S)-2-(((2R,3S,4R,5R)-5-(6-chloro-4-(cyclopentylamino)-1H-pyrazolo[3,4-b]pyridin-1-yl)-3,4-dihydroxytetrahydrofuran-2-yl)methoxy)-1-(((S)-cyclopropanecarboxamido(methyl)(oxo)-λ^6-sulfaneylidene)amino)-3-methoxy-1-oxopropan-2-yl)phosphonic Acid] | – | 9.00
COC[C@@](OC[C@H]1O[C@@H](n2ncc3c(NC4CCCC4)nc(Cl)nc32)[C@H](O)[C@@H]1O)(C(=O)N=[S@](C)(=O)NC(=O)c1ccc(F)cc1)P(=O)(O)O (single isomer, unassigned) [Example 26] | – | 8.63
COC[C@@](OC[C@H]1O[C@@H](n2ncc3c(NC4CCCC4)cc(Cl)nc32)[C@H](O)[C@@H]1O)(C(=O)N=[S@@](C)(=O)NC(C)=O)P(=O)(O)O [Example 31, ((S)-1-(((R)-acetamido(methyl)(oxo)-λ^6-sulfaneylidene)amino)-2-(((2R,3S,4R,5R)-5-(6-chloro-4-(cyclopentylamino)-1H-pyrazolo[3,4-b]pyridin-1-yl)-3,4-dihydroxytetrahydrofuran-2-yl)methoxy)-3-methoxy-1-oxopropan-2-yl)phosphonic Acid] | – | 9.30
